# Data from PubChem BioAssay AID256 (DTP/NCI, 2004).
# Where “and” joins values, the source holds several entries; their conditions need not be identical. Equal entries are not always repeated. Toxic doses and inconclusive results are not listed.
# Tested on: CD2F1 mice, L1210 leukemia ip, survival T/C
# Experiment: NCI In Vivo Anticancer Drug Screen. Data for tumor model L1210 Leukemia (intraperitoneal) in CD2F1 (CDF1) mice
# Details: higher = longer survival
# Procedure, shortened: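 Activity against a transplanted murine tumor was judged by comparing the compound group with a vehicle group. The outcome in the treated animals was divided by that in the controls.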
# [1] = endpoint: mean survival time, dose: 100.0 mg/kg/injection, schedule: Q04DX003 (ip), vehicle: Klucel (hydroxypropylcellulose) (HPC)
# [2] = endpoint: mean survival time, dose: 200.0 mg/kg/injection, schedule: Q04DX003 (ip), vehicle: Klucel (hydroxypropylcellulose) (HPC)
# [3] = endpoint: mean survival time, dose: 100.0 mg/kg/injection, schedule: Q04DX003 (ip), vehicle: saline
# [4] = endpoint: mean survival time, dose: 200.0 mg/kg/injection, schedule: Q04DX003 (ip), vehicle: saline
# [5] = endpoint: mean survival time, dose: 400.0 mg/kg/injection, schedule: Q04DX003 (ip), vehicle: saline
structure (smiles),measurement,setting,value
C=C1c2ccccc2C=NN1c1ccccc1,T/C,"endpoint: mean survival time, dose: 100.0 mg/kg/injection, schedule: Q01DX001 (ip), vehicle: other",94 % of control
same,T/C,"endpoint: mean survival time, dose: 200.0 mg/kg/injection, schedule: Q01DX001 (ip), vehicle: other",88 % of control
same,T/C,"endpoint: mean survival time, dose: 400.0 mg/kg/injection, schedule: Q01DX001 (ip), vehicle: other",92 % of control
COc1ccc(NC(=O)Nc2c(C)n(C)n(-c3ccccc3)c2=O)c(Cl)c1,T/C,"endpoint: mean survival time, dose: 50.0 mg/kg/injection, schedule: Q01DX009 (ip), vehicle: Klucel (hydroxypropylcellulose) (HPC)",95 % of control
same,T/C,"endpoint: mean survival time, dose: 100.0 mg/kg/injection, schedule: Q01DX009 (ip), vehicle: Klucel (hydroxypropylcellulose) (HPC)",95 % of control
same,T/C,[1],104 % of control
same,T/C,"endpoint: mean survival time, dose: 200.0 mg/kg/injection, schedule: Q01DX009 (ip), vehicle: Klucel (hydroxypropylcellulose) (HPC)",95 % of control
same,T/C,[2],104 % of control
same,T/C,"endpoint: mean survival time, dose: 400.0 mg/kg/injection, schedule: Q04DX003 (ip), vehicle: Klucel (hydroxypropylcellulose) (HPC)",104 % of control
CC1(C)OC1C(=O)O (stereo not given),T/C,[3],106 % of control
same,T/C,[4],96 % of control
same,T/C,[5],98 % of control
CCO[Si](OCC)OCC,T/C,"endpoint: mean survival time, dose: 75.0 mg/kg/injection, schedule: Q01DX001 (ip), vehicle: saline",108 % of control
COc1ccc(F)c(NC(=O)/C=N/O)c1,T/C,"endpoint: mean survival time, dose: 100.0 mg/kg/injection, schedule: Q04DX003 (ip), vehicle: saline with Tween-80",102 % of control
same,T/C,"endpoint: mean survival time, dose: 200.0 mg/kg/injection, schedule: Q04DX003 (ip), vehicle: saline with Tween-80",102 % of control
same,T/C,"endpoint: mean survival time, dose: 400.0 mg/kg/injection, schedule: Q04DX003 (ip), vehicle: saline with Tween-80",100 % of control
Cc1nc2ccccc2cc1C[N+]12CN3CN(CN(C3)C1)C2,T/C,"endpoint: mean survival time, dose: 25.0 mg/kg/injection, schedule: Q01DX009 (ip), vehicle: saline with Tween-80",106 % of control
same,T/C,"endpoint: mean survival time, dose: 25.0 mg/kg/injection, schedule: Q04DX003 (ip), vehicle: saline with Tween-80",101 % of control
same,T/C,"endpoint: mean survival time, dose: 50.0 mg/kg/injection, schedule: Q01DX009 (ip), vehicle: saline with Tween-80",113 % of control
same,T/C,"endpoint: mean survival time, dose: 50.0 mg/kg/injection, schedule: Q04DX003 (ip), vehicle: saline with Tween-80",103 % of control
same,T/C,"endpoint: mean survival time, dose: 100.0 mg/kg/injection, schedule: Q01DX001 (ip), vehicle: saline",109 % of control
CCN=C=NCCCN(C)C,T/C,"endpoint: mean survival time, dose: 6.25 mg/kg/injection, schedule: Q01DX009 (ip), vehicle: saline",105 % of control
same,T/C,"endpoint: mean survival time, dose: 12.5 mg/kg/injection, schedule: Q01DX009 (ip), vehicle: saline",110 % of control
same,T/C,"endpoint: mean survival time, dose: 25.0 mg/kg/injection, schedule: Q01DX009 (ip), vehicle: saline",100 % of control
CC(=O)NC1=C(N2CC2)C(=O)C(NC(C)=O)=C(N2CC2)C1=O,T/C,"endpoint: mean survival time, dose: 0.5 mg/kg/injection, schedule: Q01DX009 (ip), vehicle: saline",164 % of control and 181 % of control
same,T/C,"endpoint: mean survival time, dose: 1.0 mg/kg/injection, schedule: Q01DX007 (ip), vehicle: saline",190 % of control
same,T/C,"endpoint: mean survival time, dose: 1.0 mg/kg/injection, schedule: Q01DX009 (ip), vehicle: saline",213 % of control and 230 % of control and 261 % of control
same,T/C,"endpoint: mean survival time, dose: 1.0 mg/kg/injection, schedule: Q03DX003 (ip), vehicle: saline",162 % of control
same,T/C,"endpoint: mean survival time, dose: 2.0 mg/kg/injection, schedule: Q01DX007 (ip), vehicle: saline",105 % of control
same,T/C,"endpoint: mean survival time, dose: 2.0 mg/kg/injection, schedule: Q01DX009 (ip), vehicle: saline",253 % of control and 100 % of control and 101 % of control
same,T/C,"endpoint: mean survival time, dose: 2.0 mg/kg/injection, schedule: Q03DX003 (ip), vehicle: saline",198 % of control
same,T/C,"endpoint: mean survival time, dose: 2.0 mg/kg/injection, schedule: Q04DX003 (ip), vehicle: saline",191 % of control
same,T/C,"endpoint: mean survival time, dose: 4.0 mg/kg/injection, schedule: Q03DX003 (ip), vehicle: saline",107 % of control
same,T/C,"endpoint: mean survival time, dose: 4.0 mg/kg/injection, schedule: Q04DX003 (ip), vehicle: saline",217 % of control
NC(=O)C1(Cl)CC2C=CC1C2 (stereo not given),T/C,[3],94 % of control
COc1ccc(/C=N\N=C\c2ccc(OC)c(OC)c2)cc1OC,T/C,[3],105 % of control
same,T/C,[4],100 % of control
same,T/C,[5],94 % of control
[Cl][Pt+2][Cl].[NH-]c1ccc(F)cc1F.[NH-]c1ccc(F)cc1F,T/C,"endpoint: mean survival time, dose: 12.5 mg/kg/injection, schedule: Q04DX003 (ip), vehicle: distilled water + Tween-80",114 % of control and 104 % of control and 110 % of control
same,T/C,"endpoint: mean survival time, dose: 25.0 mg/kg/injection, schedule: Q04DX003 (ip), vehicle: distilled water + Tween-80",115 % of control and 117 % of control and 96 % of control
same,T/C,"endpoint: mean survival time, dose: 50.0 mg/kg/injection, schedule: Q04DX003 (ip), vehicle: distilled water + Tween-80",116 % of control and 105 % of control
same,T/C,"endpoint: mean survival time, dose: 100.0 mg/kg/injection, schedule: Q04DX003 (ip), vehicle: distilled water + Tween-80",122 % of control and 88 % of control and 94 % of control
COc1cccc(C(=O)c2ccncc2C)c1OC,T/C,"endpoint: mean survival time, dose: 12.5 mg/kg/injection, schedule: Q01DX009 (ip), vehicle: water",89 % of control
same,T/C,"endpoint: mean survival time, dose: 25.0 mg/kg/injection, schedule: Q01DX009 (ip), vehicle: water",93 % of control
same,T/C,"endpoint: mean survival time, dose: 50.0 mg/kg/injection, schedule: Q01DX009 (ip), vehicle: water",93 % of control
same,T/C,"endpoint: mean survival time, dose: 100.0 mg/kg/injection, schedule: Q01DX009 (ip), vehicle: water",93 % of control
same,T/C,"endpoint: mean survival time, dose: 200.0 mg/kg/injection, schedule: Q01DX009 (ip), vehicle: water",96 % of control
Cc1ccc(-n2nc(C3OCC(O)C3O)c3nc4cc(C)c(C)cc4nc32)cc1 (stereo not given),T/C,"endpoint: median survival time, dose: 10.0 mg/kg/injection, schedule: Q01DX005 (ip), vehicle: distilled water + Tween-80",98 % of control
same,T/C,"endpoint: median survival time, dose: 20.0 mg/kg/injection, schedule: Q01DX005 (ip), vehicle: distilled water + Tween-80",97 % of control
same,T/C,"endpoint: median survival time, dose: 40.0 mg/kg/injection, schedule: Q01DX005 (ip), vehicle: distilled water + Tween-80",103 % of control
same,T/C,"endpoint: median survival time, dose: 80.0 mg/kg/injection, schedule: Q01DX005 (ip), vehicle: distilled water + Tween-80",97 % of control
same,T/C,"endpoint: median survival time, dose: 160.0 mg/kg/injection, schedule: Q01DX005 (ip), vehicle: distilled water + Tween-80",98 % of control
CCC1(CC)COC(C)(C(=O)O)OC1,T/C,[3],111 % of control
same,T/C,[4],96 % of control
same,T/C,[5],100 % of control
CCOC(=O)Nc1cc(NCCc2ccccc2)c2[nH]cnc2n1,T/C,"endpoint: mean survival time, dose: 100.0 mg/kg/injection, schedule: Q01DX001 (ip), vehicle: Klucel (hydroxypropylcellulose) (HPC)",90 % of control
same,T/C,"endpoint: mean survival time, dose: 200.0 mg/kg/injection, schedule: Q01DX001 (ip), vehicle: Klucel (hydroxypropylcellulose) (HPC)",87 % of control
same,T/C,"endpoint: mean survival time, dose: 400.0 mg/kg/injection, schedule: Q01DX001 (ip), vehicle: Klucel (hydroxypropylcellulose) (HPC)",95 % of control
CC12CCC(=O)C=C1CCC1C2CCC2(C)C1CCC2(O)C(=O)Cn1c(=O)[nH]cc(F)c1=O (stereo not given),T/C,"endpoint: mean survival time, dose: 12.5 mg/kg/injection, schedule: Q04DX003 (ip), vehicle: Klucel (hydroxypropylcellulose) (HPC)",93 % of control
same,T/C,"endpoint: mean survival time, dose: 25.0 mg/kg/injection, schedule: Q04DX003 (ip), vehicle: Klucel (hydroxypropylcellulose) (HPC)",96 % of control
same,T/C,"endpoint: mean survival time, dose: 50.0 mg/kg/injection, schedule: Q04DX003 (ip), vehicle: Klucel (hydroxypropylcellulose) (HPC)",93 % of control
same,T/C,[1],100 % of control
same,T/C,[2],96 % of control
CC(O)C(=O)Oc1ccccc1 (stereo not given),T/C,"endpoint: mean survival time, dose: 50.0 mg/kg/injection, schedule: Q01DX009 (ip), vehicle: other",92 % of control
same,T/C,"endpoint: mean survival time, dose: 100.0 mg/kg/injection, schedule: Q01DX009 (ip), vehicle: other",100 % of control
same,T/C,"endpoint: mean survival time, dose: 200.0 mg/kg/injection, schedule: Q01DX009 (ip), vehicle: other",102 % of control
O=NNc1cnccn1,T/C,"endpoint: median survival time, dose: 3.12 mg/kg/injection, schedule: Q01DX009 (ip), vehicle: water",112 % of control
same,T/C,"endpoint: median survival time, dose: 6.25 mg/kg/injection, schedule: Q01DX009 (ip), vehicle: water",113 % of control and 109 % of control
same,T/C,"endpoint: median survival time, dose: 8.6 mg/kg/injection, schedule: Q01DX009 (ip), vehicle: water",121 % of control and 107 % of control
same,T/C,"endpoint: median survival time, dose: 11.0 mg/kg/injection, schedule: Q01DX009 (ip), vehicle: water",121 % of control and 124 % of control
same,T/C,"endpoint: median survival time, dose: 12.5 mg/kg/injection, schedule: Q01DX009 (ip), vehicle: water",120 % of control and 123 % of control
same,T/C,"endpoint: median survival time, dose: 14.4 mg/kg/injection, schedule: Q01DX009 (ip), vehicle: water",116 % of control and 112 % of control
same,T/C,"endpoint: median survival time, dose: 24.0 mg/kg/injection, schedule: Q01DX009 (ip), vehicle: water",124 % of control
same,T/C,"endpoint: median survival time, dose: 38.0 mg/kg/injection, schedule: Q01DX009 (ip), vehicle: water",221 % of control and 223 % of control
same,T/C,"endpoint: median survival time, dose: 40.0 mg/kg/injection, schedule: Q01DX009 (ip), vehicle: water",183 % of control
same,T/C,"endpoint: median survival time, dose: 50.0 mg/kg/injection, schedule: Q01DX009 (ip), vehicle: water",121 % of control
same,T/C,"endpoint: median survival time, dose: 100.0 mg/kg/injection, schedule: Q01DX009 (ip), vehicle: water",92 % of control
ClCCCC1(CCCCl)OCCO1,T/C,"endpoint: mean survival time, dose: 100.0 mg/kg/injection, schedule: Q04DX002 (ip), vehicle: saline with Tween-80",101 % of control
same,T/C,"endpoint: mean survival time, dose: 200.0 mg/kg/injection, schedule: Q04DX002 (ip), vehicle: saline with Tween-80",97 % of control
same,T/C,"endpoint: mean survival time, dose: 400.0 mg/kg/injection, schedule: Q04DX002 (ip), vehicle: saline with Tween-80",104 % of control
